These are literature values, as cited in US7217431B2, “Controlled agglomeration” (LifeCycle Pharma A/S, priority 2001, dated 2007).

Read-outs that look alike come from different tables or passages of the source.

Regarding `CC(=O)OC[C@H]1O[C@@H]([S-])[C@H](OC(C)=O)[C@@H](OC(C)=O)[C@@H]1OC(C)=O.CCP(CC)CC.[Au+]` [Auranofin], the Bioavailability entry (in vivo) is listed as “Low (15–25%)”. For `CC1CC(OC(=O)C(O)c2ccccc2)CC(C)(C)C1` (centres unmarked) [Cyclandelate], for the setting “Table 2, in words”, the Bioavailability entry is reported as “Low”.

`C#C[C@]1(O)CC[C@H]2[C@@H]3CCC4=Cc5oncc5C[C@]4(C)[C@H]3CC[C@@]21C` [Danazol]: the Bioavailability entry (Table 2, in words) is “Low”. Take `OCCN1CCN(CCCN2c3ccccc3Sc3ccc(Cl)cc32)CC1` [Perphenazine]: where the note is “Table 2, in words”, the Bioavailability entry is on record as “Low”. With `COc1ccc(CCN2CCC(Nc3nc4ccccc4n3Cc3ccc(F)cc3)CC2)cc1` [Astemizole], where the note is “Table 2, in words”, the Bioavailability entry is “Low–moderate”.
